These results are taken from ChEMBL document CHEMBL3045614, “Antifeedant activity of vicolides from Pentanema indicum” (1999).

Common to all, as to format: functional
Assay [1] deals with Euproctis fraterna. The assay can be described thus: Antifeedant activity against moulted fifth larval stage of Euproctis fraterna infested castor leaves assessed as feeding deterrence index at 2000 ppm by leaf disk assay relative to control.
The subject of assay [2] is Euproctis fraterna. Kind of assay: Antifeedant activity against moulted fifth larval stage of Euproctis fraterna infested castor leaves assessed as feeding deterrence index at 2 ppm by leaf disk assay relative to control.
The subject of assay [3] is Euproctis fraterna. Kind of assay: Antifeedant activity against moulted fifth larval stage of Euproctis fraterna infested castor leaves assessed as feeding deterrence index at 20 ppm by leaf disk assay relative to control.
Assay [4] relates to Olepa ricini. Kind of assay: Antifeedant activity against moulted fifth larval stage of Olepa ricini infested on castor leaves assessed as feeding deterrence index at 200 ppm by leaf disk assay relative to control.
In assay [5] the test system is Olepa ricini. Kind of assay: Antifeedant activity against moulted fifth larval stage of Olepa ricini infested on castor leaves assessed as feeding deterrence index at 2 ppm by leaf disk assay relative to control.
For assay [6], the system named is Euproctis fraterna. The assay can be described thus: Antifeedant activity against moulted fifth larval stage of Euproctis fraterna infested castor leaves assessed as feeding deterrence index at 0.2 ppm by leaf disk assay relative to control.
For assay [7], the system named is Euproctis fraterna. The assay can be described thus: Antifeedant activity against moulted fifth larval stage of Euproctis fraterna infested castor leaves assessed as feeding deterrence index at 200 ppm by leaf disk assay relative to control.
Assay [8] concerns Olepa ricini. The assay can be described thus: Antifeedant activity against moulted fifth larval stage of Olepa ricini infested on castor leaves assessed as feeding deterrence index at 2000 ppm by leaf disk assay relative to control.
Assay [9] deals with Olepa ricini. Kind of assay: Antifeedant activity against moulted fifth larval stage of Olepa ricini infested on castor leaves assessed as feeding deterrence index at 0.2 ppm by leaf disk assay relative to control.
Assay [10] has as its system Olepa ricini. The assay can be described thus: Antifeedant activity against moulted fifth larval stage of Olepa ricini infested on castor leaves assessed as feeding deterrence index at 20 ppm by leaf disk assay relative to control.

Take `C=C1C(=O)O[C@H]2[C@H]1[C@@H](O)[C@H](OC(=O)/C(C)=C\C)[C@H](C)[C@@H]1C(=O)C=C(C)[C@H]21` [VICOLIDE A]: the FDI in the assay with Euproctis fraterna [1] is listed as 15.06%; in the assay on Euproctis fraterna [2], 8.99%; with Euproctis fraterna [3], 15.33%; with Olepa ricini [4], 29.66%; with Olepa ricini [5], 13.35%; in the assay with Euproctis fraterna [6], 8.43%. Also, the FDI in the assay with Euproctis fraterna [7] is reported as 15.33%; in the assay on Olepa ricini [8], 42.86%; in the assay with Olepa ricini [9], 6.17%; in the assay on Olepa ricini [10] it was 22.28%.
As to `C=C1C(=O)O[C@@H]2C/C(C)=C\C(=O)C[C@@H](C)[C@@H](OC(=O)/C(C)=C\C)[C@H](O)[C@@H]12` [VICOLIDE B], the FDI is recorded as 57.03% with Euproctis fraterna [1]; 13.98% in the assay with Euproctis fraterna [2]; 20.28% in the assay with Euproctis fraterna [3]; 40.93% with Olepa ricini [4]; 21.06% in the assay on Olepa ricini [5]; 12.17% in the assay with Euproctis fraterna [6]. The FDI in the assay on Euproctis fraterna [7] was 22.54%; in the assay on Olepa ricini [8], 48.68%; in the assay with Olepa ricini [9], 12.83%; in the assay on Olepa ricini [10], 24.36%.
In the case of `C=C1C(=O)O[C@H]2[C@H]1[C@@H](OC(=O)[C@@H](C)CC)[C@H](OC(C)=O)[C@H](C)C[C@@H](O)[C@H]1O[C@@]1(C)[C@@H]2O` [VICOLIDE C], the FDI is 26.56% with Euproctis fraterna [1]; 18.6% in the assay on Euproctis fraterna [2]; 22.37% in the assay on Euproctis fraterna [3]; 30.59% with Olepa ricini [4]; 9.61% with Olepa ricini [5]; 13.98% in the assay with Euproctis fraterna [6]. Also, the FDI is listed as 26.76% with Euproctis fraterna [7], 38.26% in the assay on Olepa ricini [8], 4.44% in the assay on Olepa ricini [9] and 17.74% with Olepa ricini [10].
For `C=C1C(=O)O[C@@H]2C/C(C)=C\C(=O)C[C@@H](C)[C@@H](OC(=O)[C@]3(C)O[C@@H]3C)[C@H](O)[C@@H]12` [VICOLIDE D], the FDI with Euproctis fraterna [1] is on record as 35.68%; in the assay with Euproctis fraterna [2], 14.44%; in the assay with Euproctis fraterna [3], 15.37%; in the assay with Olepa ricini [4], 40.93%; in the assay on Olepa ricini [5], 17.74%; in the assay with Euproctis fraterna [6], 10.99%. Also, the FDI with Euproctis fraterna [7] came to 20.46%; in the assay with Olepa ricini [8] it was 46.88%; in the assay on Olepa ricini [9] it was 10.61%; with Olepa ricini [10] it was 27.62%.
